Results from US20080194574A1, “Pyrazine Derivatives As Effective Compounds Against Infectious Diseases” (AXXIMA PHARMACEUTICALS AG, priority 2003, published 2008).
Read-outs that look alike come from different tables or passages of the source.

Biological target: T1, viral kinase pUL-97 (Human cytomegalovirus, UniProt P16788)
T1 construct: The pUL-97 gene was cloned into a baculovirus vector; GST (glutathione S-transferase) (N); made in house; host or cells: Sf9 insect cells, baculovirus
Test: UL97 kinase assay on Immobilon plate
Type: biochemical
Conditions: inhibition of UL 97 kinase activity, read-out: Activity Class [A, B, C]
Procedure, shortened: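 GST-pUL97 from baculovirus-infected Sf9 cells phosphorylated myelin basic protein with ATP (3 μM in the added assay buffer) and γ-[33P]ATP in Tris-HCl pH 7.5 buffer with MnCl2 and DTT. Reaction ran 1 h at 30 °C with graded compound concentrations and was stopped with EDTA. 33P incorporation was measured by scintillation after filter capture and phosphoric acid washes.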

[1] = class by IC50 / % inhibition at 10 or 100 μM
[2] = class by IC50 / % inhibition at 10 μM or 100 μM

T1 sequence (P16788 whole entry): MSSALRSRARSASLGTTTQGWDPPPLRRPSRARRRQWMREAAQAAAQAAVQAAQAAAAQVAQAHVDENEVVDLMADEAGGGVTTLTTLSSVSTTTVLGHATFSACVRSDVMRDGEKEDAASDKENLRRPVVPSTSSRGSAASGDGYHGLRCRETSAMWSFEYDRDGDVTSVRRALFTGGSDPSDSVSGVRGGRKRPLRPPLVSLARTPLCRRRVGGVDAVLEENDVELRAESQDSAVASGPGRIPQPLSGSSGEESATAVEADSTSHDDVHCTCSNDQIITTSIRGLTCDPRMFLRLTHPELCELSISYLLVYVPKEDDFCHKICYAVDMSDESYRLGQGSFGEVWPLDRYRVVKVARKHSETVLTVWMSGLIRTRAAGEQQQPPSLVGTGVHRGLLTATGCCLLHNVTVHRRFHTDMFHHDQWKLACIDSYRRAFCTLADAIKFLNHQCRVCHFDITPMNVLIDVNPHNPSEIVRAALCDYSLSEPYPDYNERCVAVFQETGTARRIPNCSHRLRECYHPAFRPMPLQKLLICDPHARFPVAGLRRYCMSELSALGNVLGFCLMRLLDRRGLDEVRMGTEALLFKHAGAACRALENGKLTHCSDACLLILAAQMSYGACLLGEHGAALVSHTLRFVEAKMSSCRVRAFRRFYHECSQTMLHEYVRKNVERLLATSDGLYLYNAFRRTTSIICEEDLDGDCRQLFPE

| Molecule | IC50 [1] [µM] | IC50 [2] [µM] |
| --- | --- | --- |
| N#Cc1ccc(-c2cncc(N3CCN(c4ccncc4)CC3)n2)cc1 [compound 131, 4-(4-Pyridin-4-yl-3,4,5,6-tetrahydro-2H-[1,2′]bipyrazinyl-6′-yl)-benzonitrile] | 1 to 10 | – |
| COc1ccc(N2CCN(c3cncc(-c4ccccc4C)n3)CC2)cc1OC [compound 262, 4-(3,4-Dimethoxy-phenyl)-6′-o-tolyl-3,4,5,6-tetrahydro-2H-[1,2′]bipyrazinyl] | – | 10 to 100 |
| CC(=O)c1ccc(N2CCN(c3cncc(-c4ccc(F)c(Cl)c4)n3)CC2)cc1 [compound 151] | 10 to 100 | – |
| 6′-(4-Methylsulfanyl-phenyl)-4-pyridin-4-yl-3,4,5,6-tetrahydro-2H-[1,2′]bipyrazinyl [compound 66] | 1 to 10 | – |
| CC(=O)c1cccc(-c2cncc(N3CCN(c4ccc(F)cc4F)CC3)n2)c1 [compound 273, 1-{3-[4-(2,4-Difluoro-phenyl)-3,4,5,6-tetrahydro-2H-[1,2′]bipyrazinyl-6′-yl]-phenyl}-ethanone] | – | 10 to 100 |
| CCOc1ccc(-c2cncc(N3CCN(c4ccc(OC)c(OC)c4)CC3)n2)cc1 [compound 45, 4-(3,4-Dimethoxy-phenyl)-6′-(4-ethoxy-phenyl)-3,4,5,6-tetrahydro-2H-[1,2′]bipyrazinyl] | 1 to 10 | – |
| Fc1ccccc1N1CCN(c2cncc(-c3ccc4ccccc4c3)n2)CC1 [compound 123, 4-(2-Fluoro-phenyl)-6′-naphthalen-2-yl-3,4,5,6-tetrahydro-2H-[1,2′]bipyrazinyl] | 1 to 10 | – |
| COc1ccccc1N1CCN(c2cncc(-c3ccc(N(C)C)cc3)n2)CC1 [compound 186, {4-[4-(2-Methoxy-phenyl)-3,4,5,6-tetrahydro-2H-[1,2′]bipyrazinyl-6′-yl]-phenyl}-dimethyl-amine] | 10 to 100 | – |
| c1ccc(Oc2ccc(-c3cncc(N4CCN(c5ccccn5)CC4)n3)cc2)cc1 [compound 341, 6′-(4-Phenoxy-phenyl)-4-pyridin-2-yl-3,4,5,6-tetrahydro-2H-[1,2′]bipyrazinyl] | – | 10 to 100 |
| FC(F)(F)c1cc(-c2cncc(N3CCN(c4ccncc4)CC3)n2)cc(C(F)(F)F)c1 [compound 164, 6′-(3,5-Bis-trifluoromethyl-phenyl)-4-pyridin-4-yl-3,4,5,6-tetrahydro-2H-[1,2′]bipyrazinyl] | 10 to 100 | – |
| CN(C)c1ccc(-c2cncc(N3CCN(c4cnccn4)CC3)n2)cc1 [compound 343, Dimethyl-[4-(2′,3′,5′,6′-tetrahydro-[2,1′;4′,2″]terpyrazin-6-yl)-phenyl]-amine] | – | 1 to 10 |
| COc1cccc(N2CCN(c3cncc(-c4csc5ccccc45)n3)CC2)c1 [compound 286, 6′-Benzo[b]thiophen-3-yl-4-(3-methoxy-phenyl)-3,4,5,6-tetrahydro-2H-[1,2′]bipyrazinyl] | – | 1 to 10 |
| FC(F)(F)c1ccc(N2CCN(c3cncc(-c4ccc5ccccc5c4)n3)CC2)cc1 [compound 352, 6′-Naphthalen-2-yl-4-(4-trifluoromethyl-phenyl)-3,4,5,6-tetrahydro-2H-[1,2′]bipyrazinyl] | – | 1 to 10 |
| OCc1ccc(-c2cncc(N3CCN(c4ccccc4F)CC3)n2)cc1 [compound 125, {4-[4-(2-Fluoro-phenyl)-3,4,5,6-tetrahydro-2H-[1,2′]bipyrazinyl-6′-yl]-phenyl}-methanol] | 1 to 10 | – |
| Fc1cccc(-c2cncc(N3CCN(c4ccccc4F)CC3)n2)c1 [compound 198, 4-(2-Fluoro-phenyl)-6′-(3-fluoro-phenyl)-3,4,5,6-tetrahydro-2H-[1,2′]bipyrazinyl] | – | 10 to 100 |
| Fc1ccc(-c2cncc(N3CCN(c4ccncc4)CC3)n2)cc1Cl [compound 33, 6′-(3-Chloro-4-fluoro-phenyl)-4-pyridin-4-yl-3,4,5,6-tetrahydro-2H-[1,2′]bipyrazinyl] | < 1 | – |
| COc1cccc(N2CCN(c3cncc(-c4ccc(SC)cc4)n3)CC2)c1 [compound 369, 4-(3-Methoxy-phenyl)-6′-(4-methylsulfanyl-phenyl)-3,4,5,6-tetrahydro-2H-[1,2′]bipyrazinyl] | – | 1 to 10 |
| Fc1cccc(-c2cncc(N3CCN(c4ccc(F)cc4F)CC3)n2)c1 [compound 211, 4-(2,4-Difluoro-phenyl)-6′-(3-fluoro-phenyl)-3,4,5,6-tetrahydro-2H-[1,2′]bipyrazinyl] | – | 10 to 100 |
| CC(=O)c1ccc(N2CCN(c3cncc(-c4cccc5ccccc45)n3)CC2)cc1 [compound 149, 1-[4-(6′-Naphthalen-1-yl-2,3,5,6-tetrahydro-[1,2′]bipyrazinyl-4-yl)-phenyl]-ethanone] | 10 to 100 | – |
| COc1ccccc1N1CCN(c2cncc(-c3ccc4ccccc4c3)n2)CC1 [compound 86, 4-(2-Methoxy-phenyl)-6′-naphthalen-2-yl-3,4,5,6-tetrahydro-2H-[1,2′]bipyrazinyl] | 1 to 10 | – |
| Cc1ccc(N2CCN(c3cncc(-c4ccccc4)n3)CC2)cc1 [compound 135, 6′-Phenyl-4-p-tolyl-3,4,5,6-tetrahydro-2H-[1,2′]bipyrazinyl] | 10 to 100 | – |

| Molecule | IC50 [1] [µM] | IC50 [2] [µM] |
| --- | --- | --- |
| COc1ccc(OC)c(-c2cncc(N3CCN(c4ccc(OC)c(OC)c4)CC3)n2)c1 [compound 225, 4-(3,4-Dimethoxy-phenyl)-6′-(2,5-dimethoxy-phenyl)-3,4,5,6-tetrahydro-2H-[1,2′]bipyrazinyl] | – | 10 to 100 |
| COc1ccc(Cl)cc1-c1cncc(N2CCN(c3ccccc3OC)CC2)n1 [compound 91, 6′-(5-Chloro-2-methoxy-phenyl)-4-(2-methoxy-phenyl)-3,4,5,6-tetrahydro-2H-[1,2′]bipyrazinyl] | 10 to 100 | – |
| COc1ccccc1N1CCN(c2cncc(-c3ccc(C(F)(F)F)cc3)n2)CC1 [compound 188, 4-(2-Methoxy-phenyl)-6′-(4-trifluoromethyl-phenyl)-3,4,5,6-tetrahydro-2H-[1,2′]bipyrazinyl] | 10 to 100 | – |
| Fc1cc(-c2cncc(N3CCN(c4ccccc4F)CC3)n2)ccc1-c1ccccc1 [compound 128, 6′-(2-Fluoro-biphenyl-4-yl)-4-(2-fluoro-phenyl)-3,4,5,6-tetrahydro-2H-[1,2′]bipyrazinyl] | 10 to 100 | – |
| COc1ccc(-c2cncc(N3CCN(c4cccc(Cl)c4)CC3)n2)cc1OC [compound 100, 4-(3-Chloro-phenyl)-6′-(3,4-dimethoxy-phenyl)-3,4,5,6-tetrahydro-2H-[1,2′]bipyrazinyl] | 1 to 10 | – |
| COc1ccc(N2CCN(c3cncc(-c4ccc(C#N)cc4)n3)CC2)cc1 [compound 293, 4-[4-(4-Methoxy-phenyl)-3,4,5,6-tetrahydro-2H-[1,2′]bipyrazinyl-6′-yl]-benzonitrile] | – | 1 to 10 |
| COc1cccc(-c2cncc(N3CCN(c4ccccc4F)CC3)n2)c1 [compound 113, 4-(2-Fluoro-phenyl)-6′-(3-methoxy-phenyl)-3,4,5,6-tetrahydro-2H-[1,2′]bipyrazinyl] | 1 to 10 | – |
| Cc1cc(C)cc(-c2cncc(N3CCN(c4cccc(C)c4C)CC3)n2)c1 [compound 338, 4-(2,3-Dimethyl-phenyl)-6′-(3,5-dimethyl-phenyl)-3,4,5,6-tetrahydro-2H-[1,2′]bipyrazinyl] | – | 10 to 100 |
| COc1ccc(Cl)cc1-c1cncc(N2CCN(c3ccncc3)CC2)n1 [compound 259, 6′-(5-Chloro-2-methoxy-phenyl)-4-pyridin-4-yl-3,4,5,6-tetrahydro-2H-[1,2′]bipyrazinyl] | – | 10 to 100 |
| NC(=O)c1ccc(-c2cncc(N3CCN(c4cccc(Cl)c4)CC3)n2)cc1 [compound 89, 4-[4-(3-Chloro-phenyl)-3,4,5,6-tetrahydro-2H-[1,2′]bipyrazinyl-6′-yl]-benzamide] | 1 to 10 | – |
| COc1ccccc1N1CCN(c2cncc(-c3ccc(F)c(Cl)c3)n2)CC1 [compound 242, 6′-(3-Chloro-4-fluoro-phenyl)-4-(2-methoxy-phenyl)-3,4,5,6-tetrahydro-2H-[1,2′]bipyrazinyl] | – | 10 to 100 |
| COc1ccc(N2CCN(c3cncc(-c4ccccc4)n3)CC2)cc1 [compound 291, 4-(4-Methoxy-phenyl)-6′-phenyl-3,4,5,6-tetrahydro-2H-[1,2′]bipyrazinyl] | – | 10 to 100 |
| Fc1cccc(-c2cncc(N3CCN(c4ccccn4)CC3)n2)c1 [compound 56, 6′-(3-Fluoro-phenyl)-4-pyridin-2-yl-3,4,5,6-tetrahydro-2H-[1,2′]bipyrazinyl] | 10 to 100 | – |
| FC(F)(F)c1ccc(-c2cncc(N3CCN(c4ccccc4)CC3)n2)cc1 [compound 193, 4-Phenyl-6′-(4-trifluoromethyl-phenyl)-3,4,5,6-tetrahydro-2H-[1,2′]bipyrazinyl] | 1 to 10 | – |
| Fc1ccc(-c2cncc(N3CCN(c4ccccc4F)CC3)n2)cc1 [compound 114, 4-(2-Fluoro-phenyl)-6′-(4-fluoro-phenyl)-3,4,5,6-tetrahydro-2H-[1,2′]bipyrazinyl] | 1 to 10 | – |
| Cc1cc(C)cc(-c2cncc(N3CCN(c4ccc(Cl)c(Cl)c4)CC3)n2)c1 [compound 358, 4-(3,4-Dichloro-phenyl)-6′-(3,5-dimethyl-phenyl)-3,4,5,6-tetrahydro-2H-[1,2′]bipyrazinyl] | – | 10 to 100 |
| Fc1ccc(N2CCN(c3cncc(-c4ccc5ccccc5c4)n3)CC2)cc1 [compound 267, 4-(4-Fluoro-phenyl)-6′-naphthalen-2-yl-3,4,5,6-tetrahydro-2H-[1,2′]bipyrazinyl] | – | < 1 |
| NC(=O)c1ccccc1-c1cncc(N2CCN(c3ccncc3)CC2)n1 [Comp. 70, 2-(4-Pyridin-4-yl-3,4,5,6-tetrahydro-2H-[1,2′]bipyrazinyl-6′-yl)-benzamide] | 10 to 100 | – |
| NC(=O)c1ccc(-c2cnc(N)c(N3CCN(c4ccncc4)CC3)n2)cc1 [compound 74, 4-(3′-Amino-4-pyridin-4-yl-3,4,5,6-tetrahydro-2H-[1,2′]bipyrazinyl-6′-yl)-benzamide] | 1 to 10 | – |
| Clc1cccc(N2CCN(c3cncc(-c4ccccc4)n3)CC2)c1 [compound 97, 4-(3-Chloro-phenyl)-6′-phenyl-3,4,5,6-tetrahydro-2H-[1,2′]bipyrazinyl] | 1 to 10 | – |
